Assays:
[1] = system: Vascular Cell Adhesion Molecule (VCAM) expression in primary human umbilical vein endothelial cells; assay: VCAM High Throughput Screen (TNF-α driven VCAM expression); assay type: cell-based; settings: HUVEC, TNF 1.0 ng/ml
Description: (§1) Description of Table V: The results shown in Table V were obtained using the TNF-α assays performed as described in the protocols entitled “Method for TNF High Throughput Screen” and “Method for VCAM High Throughput Screen”, which are detailed below. These assays measure a cellular response to TNF-α stimulation, and the data published in the table are expressed as percentage inhibitions. Percentage inhibition is computed on a scale of 0 to 100% where 0 percent inhibition means the compound has no effect in the assay (the response is indistinguishable from TNF-α treatment alone), and 100% inhibition means that when the compound is present at the stated concentration, the response in the assay is the same as if TNF-α were not added. These two assays measure two different outcomes of TNF-α treatment, cell death and Vascular Cell Adhesion Molecule (VCAM) expression, and capture two of TNF-α's many biological effects. TNF-α induced apoptosis is a mechanism by which TNF-α production during immune/inflammatory responses can lead to direct cellular and tissue damage. TNF-α VCAM expression in endothelial cells is a response that allows leukocytes to leave the blood and enter a site of immune/inflammatory response. Both of these activities could lead to pathology in immune/inflammatory diseases. In the first column of the table, the percentage inhibition of the TNF-α driven apoptosis assay when the compounds are tested at 1 μM concentration is presented. The second column in the table lists the IC50 for the compound, a standard measure using a dilution series in the assay, and fitting a sigmoidal curve to the resulting dose-response curve. The IC50 is the concentration (derived analytically from the sigmoidal function) at which the compound would inhibit 50% of the response in the assay. The third and fourth column list the corresponding analysis for the TNF-α driven VCAM assay. In Table VI, data corresponding to the data in column 1 of Table V is shown, with human cells replacing the mouse cells used in the high throughput screen. […] As a consequence, the compounds will have use in treating more than one TNF-α mediated condition, and may be selected according to the manner in which the condition manifests. This corresponds to the use of these compounds in the treatment of human disease.
• 1. Plate 4×10^4 L929 cells in 100 μl of complete EMEM in Costar 96 well plates in PM. • 2. The next day, pretreat with compound, inhibitor and control vehicle for 2 hours. • 3. After 2 hours pretreatment, add 10 μl 5 ng/ml human TNF-α and actinomycin D (40 μg/ml final concentration). • 4. Incubate overnight. • 5. In AM, remove supernatant. • 6. Wash on a plate washer (0.9% NaCl). • 7. […] Shake plates on orbital shaker and read at 595 nm on plate reader. […]

[2] = system: Normal human dermal fibroblasts; assay: TNF-α induced apoptosis in primary human fibroblasts; assay type: cell-based; settings: for OD 595 nm: 2 ng/ml TNF-α 24 hours, crystal violet
Description: as §1
Normal human dermal fibroblasts were seeded into 96-well plates at 3×10^4 cells/well. Cells were pretreated for 2 hours with […] Actinomycin D and either Compound 44 or DMSO as a vehicle control. Cells were then exposed to 2 ng/ml TNF-α for 24 hours and stained with crystal violet/ethanol. Crystal violet was solubilized with methanol and absorbance at 595 nm was read on a microtiter plate reader.

C57/BL mouse = assay: Sepsis model: murine LPS-d-galactosamine model; assay type: in vivo; settings: 200 mg/kg intraperitoneally one hour before induction; prevention of mortality over three days
Method: Sepsis was induced in the C57/BL mouse by the intravenous injection of 20 ng of lipopolysaccharide/animal plus 20 mgs d-galactosamine/animal. Inhibition was measured as the prevention of mortality over a three day period. Compounds were administered intraperitoneally in 10% cremophore/10% ethanol/80% normal saline one hour before induction.

[3] = Pharmacokinetic parameters; assay type: in vivo; settings: in vivo
SJL mouse strain = assay: Experimental Allergic Encephalitis (murine model of multiple sclerosis); assay type: in vivo
Method: SJL mouse strain were immunized subcutaneously with proteolipid peptide amino acid residues 139-151 in Complete Freund's Adjuvant. Pertussis toxin was injected intravenously on day 1 and 3 post-induction. Weight loss occurred at day 7 post-immunization with paralysis ensuing between days 9 and 14 post-immunization.

With N#Cc1cccc(C(C(=O)NCC(c2ccccc2)c2ccccc2)N(CCc2c[nH]cn2)C(=O)c2ccccc2C(=O)c2ccccc2)c1 (stereo not shown) [Compound 44] the IC50 [1] was 24.4 µM, the “% Rescue” value ([2]; 2 μM compound) was 18.4% and the “OD 595 nm” value ([2]; 2 μM compound) was 0.109. For the same compound, the “% Rescue” value ([2]; 4 μM compound) was 57.1%, the “OD 595 nm” value ([2]; 4 μM compound) was 0.147 and the “% Rescue” value ([2]; 8 μM compound) was 109.2%. For the same compound, the “OD 595 nm” value ([2]; 8 μM compound) was 0.198, the “Sepsis: Murine LPS-d-galactosamine model % inhibition” value (C57/BL mouse) was 33 +/− 1 @ 200% and the bioavailability ([3]; po, species not given) was 26%. For the same compound, the half-life ([3]; unit and species not given, read-out: Pharmacokinetic Parameters t1/2 (converted)) was 2.3 h, the “% inhibition of disease” value (SJL mouse strain; Induction regimen, 15 mgs/kg/day/i.p. from day 1-21, P = 0.06) was 44.0% and the “activity disease severity score (ADSS) at last day of dosing, treated (vs. control)” value (“activity disease severity score … (vs. control)” below) (SJL mouse strain; Induction regimen, 15 mgs/kg/day/i.p. from day 1-21, control 3.35) was 1.9/3.35. For the same compound, the “% Survival of treated (vs. % survival of controls)” value (“% Survival of treated” for short) (SJL mouse strain; Induction regimen, 15 mgs/kg/day/i.p. from day 1-21, controls 50) was 75 vs. 50%, the “activity disease severity score … (vs. control)” value (SJL mouse strain; Induction regimen, 75 mgs/kg/day/i.p. from day 1-21, control 3.35) was 0.8/3.35 and the “% Survival of treated” value (SJL mouse strain; Induction regimen, 75 mgs/kg/day/i.p. from day 1-21, controls 50) was 100 vs. 50%. For the same compound, the “% inhibition of disease” value (SJL mouse strain; Induction regimen, 75 mgs/kg/day/i.p. from day 1-21, p = 0.001) was 75.7%, the “activity disease severity score … (vs. control)” value (SJL mouse strain; Oral therapeutic regimen, 75 mgs/kg/day/i.p. from day 7-28, control 4.4) was 2.2/4.4 and the “% Survival of treated” value (SJL mouse strain; Oral therapeutic regimen, 75 mgs/kg/day/i.p. from day 7-28, controls 20) was 89 vs. 20%. For the same compound, the “% inhibition of disease” value (SJL mouse strain; Oral therapeutic regimen, 75 mgs/kg/day/i.p. from day 7-28, p = 0.002) was 50%, the “activity disease severity score … (vs. control)” value (SJL mouse strain; Therapeutic regimen, 15 mgs/kg/day/i.p. from day 7-21, control 4.6) was 2.6/4.6 and the “% Survival of treated” value (SJL mouse strain; Therapeutic regimen, 15 mgs/kg/day/i.p. from day 7-21, controls 11) was 70 vs. 11%. For the same compound, the “% inhibition of disease” value (SJL mouse strain; Therapeutic regimen, 15 mgs/kg/day/i.p. from day 7-21, p = 0.08) was 43.5%, the “activity disease severity score … (vs. control)” value (SJL mouse strain; Therapeutic regimen, 75 mgs/kg/day/i.p. from day 7-21, control 4.6) was 1.1/4.6 and the “% Survival of treated” value (SJL mouse strain; Therapeutic regimen, 75 mgs/kg/day/i.p. from day 7-21, controls 11) was 100 vs. 11%. The “% inhibition of disease” value (SJL mouse strain; Therapeutic regimen, 75 mgs/kg/day/i.p. from day 7-21, p = 0.001) was 76.1%.

— patent US9579325B2, “Modulators of TNF-α signaling” (Genzyme Corporation, priority 2000, dated 2017)
